From PMC8341910, “Structural and biophysical insights into the mode of covalent binding of rationally designed potent BMX inhibitors” (RSC Chemical Biology, 2020)
Converted amounts (≈) assume the structure as drawn. “And” between values parts separate entries of the source, which are not always exact repeats. Equal values may be shown once. Read-outs that look alike come from different tables or passages of the source.

Legend:
[1] = molecular target: T1, recombinant human BMX protein (hBMX) (Homo sapiens, UniProt P51813); assay: Differential scanning fluorimetry (DSF); type: binding; details: 100 μM compound; for ΔTm at 100 µM: read-out: ΔTm; for Average Tm of BMX with compound: apo-BMX Tm 51.8-52.2 °C
T1 construct: Crystallization, data collection, and structure determination of BMX catalytic domain in; made in house; host or cells: Sf-9 insect cells
Protocol: We further characterized the binding interaction between JS24–JS27 and BMX by using differential scanning fluorimetry (DSF) and surface plasmon resonance (SPR). Purified recombinant human BMX protein (hBMX) was first subjected to thermal scanning in the absence and presence of JS24–JS27, and the respective protein melting temperature (Tm) calculated.
Differential Scanning Fluorimetry:
DSF was performed in MicroAmp™ EnduraPlate™ Optical 96 -Well Clear Reaction Plates
with Barcode (Applied Biosystems, Life Technologies, California, USA) using a QuantStudio
7 Flex Real-Time PCR System (Applied Biosystems). Pre-incubation of the protein with the
compound for 2 hours at 4 °C was required prior to DSF experiments. The final reaction mixture
(20 μL of total volume) contained 4 μg of His6-BMX, 4-fold of Protein Thermal Shift™ Dye
(Applied Biosystems) diluted in protein buffer solution, and 100 μM of compound. The
temperatures were obtained by taking the midpoint of each transition.

BMX [2] = molecular target: T2, BMX (Homo sapiens, UniProt P51813); assay: BMX biochemical activity assay (HTRF, phosphorylation of a biotinylated peptide); details: for LE (BMX): ligand efficiency; for LipE (BMX): lipophilic efficiency
T2 sequence (P51813 1-675): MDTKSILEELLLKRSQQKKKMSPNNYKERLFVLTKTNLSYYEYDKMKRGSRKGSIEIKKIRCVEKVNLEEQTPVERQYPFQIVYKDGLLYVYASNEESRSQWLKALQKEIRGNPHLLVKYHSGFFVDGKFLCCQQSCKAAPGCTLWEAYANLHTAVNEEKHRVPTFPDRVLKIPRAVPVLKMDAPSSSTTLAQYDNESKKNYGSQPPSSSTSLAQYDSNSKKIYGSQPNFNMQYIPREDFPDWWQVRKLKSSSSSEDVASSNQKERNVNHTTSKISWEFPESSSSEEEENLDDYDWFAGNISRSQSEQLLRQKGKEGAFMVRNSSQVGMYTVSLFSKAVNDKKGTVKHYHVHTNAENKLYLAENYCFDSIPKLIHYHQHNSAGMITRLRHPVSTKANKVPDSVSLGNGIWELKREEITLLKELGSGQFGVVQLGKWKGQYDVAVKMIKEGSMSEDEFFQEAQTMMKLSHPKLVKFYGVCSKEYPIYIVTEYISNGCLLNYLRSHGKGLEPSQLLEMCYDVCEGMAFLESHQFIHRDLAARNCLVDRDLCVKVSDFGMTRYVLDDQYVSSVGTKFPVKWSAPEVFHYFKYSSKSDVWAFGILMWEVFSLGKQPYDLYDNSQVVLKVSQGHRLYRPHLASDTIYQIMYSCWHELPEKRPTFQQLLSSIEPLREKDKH

[3] = Dynamic light scattering, colloidal aggregation; type: physicochemical; details: measured at 10 µM, 1 µM and 100 nM, 25 °C, read-out: DLS maximum soluble concentration at which no aggregates are observed
Protocol: In addition, we measured particle sizes by using dynamic light scattering (DLS).
DLS is measured at 10 µM, 1µM and 100 nM. The maximum soluble
concentration – at which no aggregates are observed - is indicated and the colour code indicates
Dynamic Light Scattering:
Dynamic light scattering (Zetasizer Nano S, Malvern, UK) was used to determine compound colloidal aggregation. […] A 10 mM stock solution of
test compounds was prepared in DMSO, following dilution to deionized and filtered water to
obtain an analyte solution of 10 μM (0.1% DMSO). Colloidal aggregation was measured
through sequential dilutions at 10 μM, 1 μM and 0.1 μM.

[4] = pH 6.8
Excerpt: (§1) For assessment of drug permeability, we relied on parallel artificial membrane permeability assay (PAMPA) performed at Pion Inc. with the PAMPA Evolution™ instrument (Table S1, ESI ^†).
(§2) methods (ESOL model1 and Ali et al.2) PAMPA: Pe is effective permeability (x10-6 cm/sec)
(§3) measured directly from assay at pH 6.8 and %R is membrane retention.
(§4) as the average of quadruplicates. Und label refers to compounds with extremely low solubility
(§5) for which UV limits were below the detection limits therefore considered undetected.
(§6) Compounds were labelled as high permeability (green), medium permeability (orange) or low
(§7) Artificial Membrane Permeability (PAMPA):
(§8) The PAMPA Evolution™ instrument was used to determine permeability, at Pion Inc. In
(§9) PAMPA, a sandwich is formed such that each composite well is divided into two chambers,
(§10) measured at pH 6.8 in the donor compartment using low-binding, low UV Prisma buffer. The
(§11) drug-free acceptor compartment was filled with acceptor sink buffer containing a scavenger at
(§12) the start of the test. The proprietary scavenger mimics serum proteins and blood circulation,
(§13) thus creating sink conditions. Aqueous solutions of studied compounds are prepared by diluting
(§14) and thoroughly mixing 3 µL of DMSO stock in 600 µL of Prisma HT buffer. Final
(§15) concentration of organic solvent (DMSO) in aqueous buffer is ≤ 0.5% (v/v). The reference
(§16) solution is identical to the donor at time zero, so that any surface adsorption effects from the
(§17) plastic ware is compensated. The PAMPA sandwich was assembled and allowed to incubate
(§18) for ~15 hours. The solutions in the donor compartment were un-stirred within duration of the
(§19) experiment. Thus, the thickness of the aqueous boundary layer expected to be about 1000 µm.
(§20) The sandwich was then separated, and both the donor and receiver compartments were assayed
(§21) for the amount of drug present by comparison with the UV spectrum obtained from reference

in vitro = details: PAMPA
Excerpt: as §1, §2, §3, §4, §5, §6, §7, §8, §9, §10, §11, §12, §13, §14, §15, §16, §17, §18, §19, §20, §21

RS4(11) = assay: Multi cell line growth assay (CellTiter-Glo, 72 h); type: cell-based, human; details: Lung (so in the source), ND = no growth inhibition observed
DAUDI = assay: Multi cell line growth assay (CellTiter-Glo, 72 h); type: cell-based, human; details: Lymphoid, ND = no growth inhibition observed
H1299 = assay: Multi cell line growth assay (CellTiter-Glo, 72 h); type: cell-based, human; details: Bone marrow (so in the source), ND = no growth inhibition observed
Jurkat = assay: Multi cell line growth assay (CellTiter-Glo, 72 h); type: cell-based, human; details: Blood, ND = no growth inhibition observed
SK-N-MC = assay: Multi cell line growth assay (CellTiter-Glo, 72 h); type: cell-based, human; details: Brain, ND = no growth inhibition observed
LNCaP = assay: Multi cell line growth assay (CellTiter-Glo, 72 h); type: cell-based, human; details: Prostate, ND = no growth inhibition observed within the concentrations tested
CAOV3 = assay: Multi cell line growth assay (CellTiter-Glo, 72 h); type: cell-based, human; details: Ovary, ND = no growth inhibition observed
Kasumi = assay: Multi cell line growth assay (CellTiter-Glo, 72 h); type: cell-based, human; details: Blood, ND = no growth inhibition observed
22 RV1 = assay: Multi cell line growth assay (CellTiter-Glo, 72 h); type: cell-based, human; details: Prostate, ND = no growth inhibition observed
PC3 = assay: Multi cell line growth assay (CellTiter-Glo, 72 h); type: cell-based, human; details: Prostate, ND = no growth inhibition observed
LNCaP cells [5] = assay: Anti-proliferative co-treatment assays in LNCaP; type: cell-based; details: JS24 3 μM, JS25 5 μM, JS26 6 μM, 5 days
PC3 cells = assay: PC-3 cell growth assay (CellTiter-Glo, 96 h); type: cell-based; details: Homo sapiens, PC-3; 96 h, 96-well plates; N.d. = no growth inhibition observed within the concentrations tested; read-out: GI50 PC3
Protocol: (§22) GI50 values are reported in μM and are the mean of three individual experiments performed in triplicate. N.d., non-determined, no growth inhibition observed within the concentrations tested.
(§23) Cellular activity Assay: LNCaP and PC-3 Cell Growth Assay
(§24) Cells were seeded in white, opaque-bottom 96-well plates at 5000 cells/well (LNCaP) or 2000 cells/well (PC-3) in a total volume of 100 µL of culture media.
(§25) fold) in 100 µL media were added to the cells 24 hours later. After 96 hours incubation cellular viability was assessed by CellTiter-Glo® (Promega) according to the manufacturer’s instructions. The values were normalized to vehicle and IC50 was calculated using GraphPad

LNCaP cells [6] = assay: LNCaP cell growth assay (CellTiter-Glo, 96 h); type: cell-based; details: Homo sapiens, 96-well plates, mean of three experiments in triplicate, read-out: GI50 LNCaP
Protocol: as §22, §23, §24, §25

BMX [7] = molecular target: T2, BMX; assay: Kinetic characterization with ADP-Glo kinase assay; type: biochemical; parameters: purchased Promega Corporation (USA) V4512; details: duplicate, mean ± S.D.
Excerpt: The inactivation of BMX occurs in a two-step process that is governed by two parameters: the affinity of the initial non-covalent binding, KI, and the rate of the subsequent covalent bond-forming reaction with the thiol of the cysteine residue, kinact. […]. […] Thus, taking into account that all the analogues have the same Michael acceptor moiety, the enhanced activity must be a result of the structural modifications introduced in the scaffold. […]
Kinetic characterization using an ADP-GLOTM kinase assay:
The BMX enzyme system (Catalog. V4512) and the ADP-GloTM kinase assay were purchased from Promega Corporation (USA). In each kinase reaction, the concentration of BMX was set to 4.5 ng/µL. The peptide substrate Poly (4:1 Glu, Tyr) and ATP concentrations were set to 0.25 mg/mL and 50 µM, respectively. BMX was pre-incubated with different inhibitor concentrations (10-fold serial dilutions, starting at 1 mM), over different time periods (2 - 60 min), before initiating the kinase reactions. Reactions were started by adding 2.5X Poly E4Y1/ATP mixture. The reactions were carried out in a 384-well plate, stopping all at the same time with the addition of 5 µL of ADP-GloTM reagent, to consume the remaining ATP within 40 min. Then, 10 µL of kinase detection reagent was added into the wells and incubated for 30 min to produce a luminescence signal. The signal was measured using an Infinite M200 […]
observed rate constants for inhibition (kobs), at different inhibitor concentrations, were determined from the slope of a semi-logarithmic plot of inhibition versus time, and re-plotted against inhibitor concentration (nM). The experimental values were fitted into a hyperbolic function using GraphPad Prism 8 ([…]), to obtain the KI, kinact, and kinact/KI, as described previously.12 […]
(Thermo Fisher Scientific) using gold-coated glass needles. […]

His6-hsBMX = molecular target: T3, His6-hsBMX (Homo sapiens, UniProt P51813); assay: Surface plasmon resonance (SPR); type: binding; details: 1:1 Langmuir fit, 25 °C
T3 construct: Crystallization, data collection, and structure determination of BMX catalytic domain in; made in house; host or cells: Sf-9 insect cells
Excerpt: response upon compound injection (t=0s), or upon washing (t=220s), on immobilized His6-
hsBMX surfaces. Compound concentrations injected on already saturated surfaces were not
included in the 1:1 Langmuir fitting model. X-axis: time (s); y-axis: response (arbitrary units).
Inset plots [x-axis: compound concentration (M); y-axis: response (arbitrary units)] show the
steady-state affinity (KDss) fit for the interactions wherein equilibrium was reached.
Surface Plasmon Resonance:
The kinetic and affinity parameters of protein-compound interaction were evaluated by SPR.
Experiments were carried out in a Biacore 4000 instrument (Biacore AB, GE Healthcare Life
Sciences, Uppsala, Sweden) at 25 °C. His6-BMX protein was diluted to 10 µg/mL in sodium
acetate pH 5.5, in the presence of 5 µM staurosporine and immobilized onto CM5 (Series S)
sensor chips, using the standard amine coupling procedure. Prior to immobilization, the
carboxymethylated surface of the chip was activated with 400 mM 1-ethyl-3-(3-
dimethylaminopropyl)-carbodiimide and 100 mM N-hydroxysuccinimide for 10 min. HBS-N
(10 mM HEPES pH7.4, 150mM NaCl) was used as the background buffer. Protein was coupled
to the surface after 2 to 10 min injection times, at a flow rate of 10 µL/min, in order to reach
1500 to 3500 response units (RU). The remaining activated carboxymethylated groups were
blocked with a 7 min injection of 1 M ethanolamine pH 8.5. Compounds were pre-diluted in
DMSO to 50x the desired highest tested concentration and diluted afterwards in running buffer
(20 mM HEPES pH 7.4, 150 mM NaCl, 1 mM DTT, 0.1 mM EGTA, 0.05 % (v/v) TWEEN-
20, 5 mM MgCl2) in order to reach 2% of DMSO concentration. A DMSO solvent correction
(1% - 3%) was performed to account for variations in bulk signal and to achieve high-quality
data. Each compound was injected over immobilized His6-BMX for 220 s (30 µL min-1;
association phase) followed by 600 to 2000 s of buffer flow (dissociation phase) at a maximum
five times in 2-fold dilution series. All sensorgrams were processed by first subtracting the
binding response recorded from the control surface (reference spot), followed by subtracting
the buffer blank injection from the reaction spot. All datasets were fit to a simple 1:1 Langmuir
interaction model with the provided Biacore 4000 Evaluation software, to determine kinetic rate constants (kon, koff) or steady-state affinity (KDss).

BTK = BTK (Homo sapiens, UniProt Q06187); assay: BTK biochemical activity assay (radiometric, KinaseProfiler); parameters: purchased Eurofins DiscoverX KinaseProfiler (contract assay)
[8] = Experiment 1 of Fig. S3, control JS9A (in-house BMX-IN-1), read-out: BMX IC50
[9] = deionized and filtered water (0.1% DMSO), kinetic from dmso stock
[10] = pH 6.8, PAMPA/Pe effective permeability
[11] = relative to the control of the same set of experiments
[12] = Experiment 4 of Fig. S3 = Fig. 1b, duplicate, mean ± S.D., read-out: BMX inhibition IC50

Sequence of BTK (Q06187 whole entry, species assumed): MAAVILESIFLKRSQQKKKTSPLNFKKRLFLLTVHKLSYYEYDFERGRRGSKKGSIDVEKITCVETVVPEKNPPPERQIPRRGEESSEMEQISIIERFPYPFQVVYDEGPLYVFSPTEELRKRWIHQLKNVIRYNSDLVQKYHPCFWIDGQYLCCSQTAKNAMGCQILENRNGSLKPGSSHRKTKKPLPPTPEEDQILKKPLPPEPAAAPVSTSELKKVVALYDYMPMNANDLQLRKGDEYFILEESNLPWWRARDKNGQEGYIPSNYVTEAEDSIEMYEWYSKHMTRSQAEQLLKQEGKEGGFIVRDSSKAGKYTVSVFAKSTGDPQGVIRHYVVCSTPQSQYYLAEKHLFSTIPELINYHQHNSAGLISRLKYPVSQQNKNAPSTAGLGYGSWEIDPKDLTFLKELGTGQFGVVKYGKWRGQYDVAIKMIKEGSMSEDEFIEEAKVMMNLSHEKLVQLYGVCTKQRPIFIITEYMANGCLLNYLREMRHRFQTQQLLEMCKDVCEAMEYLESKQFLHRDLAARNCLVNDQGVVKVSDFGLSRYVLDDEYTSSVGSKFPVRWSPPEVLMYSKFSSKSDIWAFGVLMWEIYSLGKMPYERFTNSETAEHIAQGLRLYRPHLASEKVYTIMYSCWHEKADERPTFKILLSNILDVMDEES

SMILES: C=CC(=O)Nc1cc(C)cc(-n2c(=O)ccc3cnc4ccc(-c5ccc(NS(C)(=O)=O)cc5)cc4c32)c1 [JS9B, N-(3-methyl-5-(9-(4-(methylsulfonamido)phenyl)-2-oxobenzo[h][1,6]naphthyridin-1(2H)-yl)phenyl)acrylamide]
- ΔTm at 100 µM ([1]; versus apo-BMX): 7.75 ± 0.11 °C
- Average Tm of BMX with compound [1]: 59.68±0.11 °C
- IC50 (BMX [2]; [8]): 0.24 ± 0.025 µM
- solubility [3, 9]: < 0.1 µM
- PAMPA/%R membrane retention [4]: 35±7%
- Papp (in vitro; [10]): 7.1 ± 2.3 ×10⁻⁶ cm/s

SMILES: C=CC(=O)Nc1ccc(C)c(-n2c(=O)ccc3cnc4ccc(-c5ccc(NS(C)(=O)=O)cc5)cc4c32)c1 [JS9C, N-(4-methyl-3-(9-(4-(methylsulfonamido)phenyl)-2-oxobenzo[h][1,6]naphthyridin-1(2H)-yl)phenyl)acrylamide]
- ΔTm at 100 µM ([1]; versus apo-BMX): 2.2 ± 0.06 °C
- Average Tm of BMX with compound [1]: 54.12±0.06 °C
- IC50 (BMX [2]; [8]): 6.9 ± 2.92 µM
- BMX potency loss (fold) against control BMX-IN-1 (BMX [2]; [11]): abolishes target inhibition
- solubility [3, 9]: 1 µM (≈ 0.525 µg/mL)
- PAMPA/%R membrane retention [4]: 51±6%
- Papp (in vitro; [10]): 11 ± 1 ×10⁻⁶ cm/s

SMILES: CC=CC(=O)Nc1cc(-n2c(=O)ccc3cnc4ccc(-c5ccc(NS(C)(=O)=O)cc5)cc4c32)ccc1C [JS10]
- IC50 (BMX [2]; [8]): 21 ± 7.25 µM
- BMX potency loss (fold) against control BMX-IN-1 (BMX [2]; [11]): 58 fold
- GI50 (RS4(11)): 5.06 µM
- GI50 (DAUDI): 2.57 ± 0.09 µM
- GI50 (H1299): 19.4 µM
- solubility ([3]; water): 0.1 µM (≈ 0.0539 µg/mL)
- GI50 (Jurkat): 9.71 ± 1.48 µM
- GI50 (SK-N-MC): 11.2 µM
- GI50 (LNCaP): 9.7 µM
- GI50 (CAOV3): 17.3 µM
- PAMPA/%R membrane retention [4]: 33±4%
- PAMPA/Pe effective permeability [4]: 28±4 x10-6 cm/sec
- GI50 (Kasumi): 4.37 ± 0.04 µM
- GI50 (22 RV1): 4.86 ± 0.11 µM

SMILES: CC(C)=CC(=O)Nc1cc(-n2c(=O)ccc3cnc4ccc(-c5ccc(NS(C)(=O)=O)cc5)cc4c32)ccc1C [JS11]
- ΔTm ([1]; versus apo-BMX): 0.34±0.11 °C
- Average Tm of BMX with compound [1]: 52.26±0.11 °C
- GI50 (RS4(11)): 6.66 µM
- GI50 (DAUDI): 4.57 ± 0.12 µM
- solubility ([3]; water): 0.1 µM (≈ 0.0553 µg/mL)
- GI50 (Jurkat): 6.36 ± 0.17 µM
- GI50 (SK-N-MC): 8.24 µM
- GI50 (LNCaP): 10.4 µM
- GI50 (CAOV3): 19.3 µM
- GI50 (PC3): 20.1 µM
- PAMPA/%R membrane retention [4]: 54±9%
- PAMPA/Pe effective permeability [4]: 31±4 x10-6 cm/sec
- GI50 (Kasumi): 10.14 ± 0.07 µM
- GI50 (22 RV1): 7.3 µM

SMILES: C=CC(=O)Nc1cc(-n2c(=O)ccc3cnc4ccc(-c5ccc(C(F)(F)F)nc5)cc4c32)ccc1C [JS19]
- Average Tm of BMX with compound [1]: 58.64±0.13 °C
- IC50 (BMX [2]; Experiment 2 of Fig. S3, control commercial BMX-IN-1, read-out: BMX IC50): 0.47 ± 0.179 µM
- solubility ([3]; water): < 0.1 µM
- PAMPA/Pe effective permeability [4]: Und

SMILES: C=CC(=O)Nc1cccc(-n2c(=O)ccc3cnc4cc(-c5ccc(NS(C)(=O)=O)cc5)ccc4c32)c1 [JS26]
- ΔTm at 100 µM ([1]; versus apo-BMX): 9.34 ± 0.21 °C
- Average Tm of BMX with compound [1]: 61.47±0.21 °C
- IC50 (BMX [2]; [12]): 0.0091 µM
- LE (BMX) (BMX [2]): 0.30
- LipE (BMX) (BMX [2]): 4.45
- decrease in cell viability (LNCaP cells [5]; co-treatment with AKT1/2 (1 μM), relative to control AKT1/2): 63%
- decrease in cell viability (LNCaP cells [5]; co-treatment with LY294002 (3 μM)): 35%
- solubility [3, 9]: ≥ 10 µM
- GI50 (PC3 cells): 10.1 ± 1.3 µM
- PAMPA/%R membrane retention [4]: 8±14%
- GI50 (LNCaP cells [6]): 7.7 µM
- k inact (BMX [7]): 0.443 min⁻¹ and 0.443 ± 0.003 min⁻¹
- koff (His6-hsBMX): < 0.0001 s⁻¹
- kon (His6-hsBMX): 72000 M⁻¹ s⁻¹
- Papp (in vitro; pH 6.8, PAMPA permeability): 19 ×10⁻⁶ cm/s
- Papp (in vitro; [10]): 19 ± 13 ×10⁻⁶ cm/s

SMILES: C=CC(=O)Nc1cccc(-n2c(=O)ccc3cnc4cc(N5CCN(S(C)(=O)=O)CC5)ccc4c32)c1 [JS27]
- ΔTm at 100 µM ([1]; versus apo-BMX): 10.81 ± 0.06 °C
- Average Tm of BMX with compound [1]: 62.94±0.06 °C
- IC50 (BMX [2]; [12]): 0.0137 µM
- LE (BMX) (BMX [2]): 0.30
- LipE (BMX) (BMX [2]): 5.54
- BMX potency gain (fold) against BMX-IN-1 (BMX [2]; [11]): ≈ 4 fold
- BTK potency gain (fold) relative to BMX-IN-1 (BTK): 15 fold
- IC50 (BTK; duplicate, mean ± S.D., read-out: BTK inhibition IC50): 0.0243 ± 0.0003 µM
- LE (BTK) (BTK; ligand efficiency): 0.29
- LipE (BTK) (BTK; lipophilic efficiency): 5.29
- solubility [3, 9]: ≥ 10 µM
- PAMPA/%R membrane retention [4]: 42±14%
- GI50 (LNCaP cells [6]): 9.3 µM
- k inact (BMX [7]): 0.166 min⁻¹ and 0.166 ± 0.003 min⁻¹
- koff (His6-hsBMX): < 0.0001 s⁻¹
- kon (His6-hsBMX): 99000 M⁻¹ s⁻¹
- Papp (in vitro; pH 6.8, PAMPA permeability): 12 ×10⁻⁶ cm/s
- Papp (in vitro; [10]): 12 ± 2 ×10⁻⁶ cm/s
